Experiment [1] relates to RG2. The experiment in a line: Induction of cell cycle arrest in rat RG2 cells assessed as CDK4 expression at 206 uM after 48 hrs by Western blot analysis (reference value: 1). The experiment is classed as functional.
In experiment [2] the test system is DBTRG-05MG. The experiment in a line: Induction of DNA damage in human DBTRG-05MG cells assessed as H2A.X phosphorylation at ser139 residues at 206 uM after 48 hrs by Western blot analysis (reference value: 1). The experiment is classed as functional. (In western blotting, separated proteins are transferred to a membrane and probed.)
Experiment [3] has as its system RG2. The experiment in a line: Inhibition of JNK phosphorylation at Thr183/Tyr185 residues in rat RG2 cells at 206 uM after 48 hrs by Western blot analysis (reference value: 1). The experiment is classed as cell-based.
Experiment [4] relates to RG2. The experiment in a line: Induction of cell cycle arrest in rat RG2 cells assessed as accumulation at G0/G1 phase at 206 uM after 6 hrs by propidium iodide staining based flow cytometric analysis (reference value: 57.81 +/- 1.9%). It is filed as functional. (In general: A flow cytometer gives signals particle by particle.)
In experiment [5] the test system is DBTRG-05MG. The experiment in a line: Induction of cell cycle arrest in human DBTRG-05MG cells assessed as accumulation at G0/G1 phase at 112.4 uM after 6 hrs in presence of TMZ by propidium iodide staining based flow cytometric analysis (reference value: 47.16 +/- 1.55%). The experiment is classed as functional.
For experiment [6], the system named is DBTRG-05MG. The experiment in a line: Induction of apoptosis in human DBTRG-05MG cells assessed as phosphorylated PARP expression at 112.4 uM after 48 hrs in presence of TMZ by Western blot analysis (reference value: 1). It is filed as functional.
Experiment [7] relates to RG2. Description: Induction of cell cycle arrest in rat RG2 cells assessed as accumulation at S phase at 112.4 uM after 24 hrs in presence of TMZ by propidium iodide staining based flow cytometric analysis (reference value: 20.15 +/- 2.44%). It is filed as functional.
For experiment [8], the system named is RG2. Description: Induction of cell cycle arrest in rat RG2 cells assessed as accumulation at G0/G1 phase at 112.4 uM after 24 hrs in presence of TMZ by propidium iodide staining based flow cytometric analysis (reference value: 57.81 +/- 1.9%). It is filed as functional.
The subject of experiment [9] is DBTRG-05MG. Description: Potentiation of TMZ-induced antitumor activity against human DBTRG-05MG cells xenografted in BALB/c nude mouse assessed as increase DNA damage at 75 mg/kg, sc co-treated with TMZ for 18 days by p.H2A.X staining based fluorescent immunocytochemistry method. It is filed as functional, organism-based. The following applies: time 18.0 day. A general note: A xenograft is tissue or cells of one species grown in another, often human tumour cells in immunodeficient mice.

The test system of experiment [10] is RG2. Description: Inhibition of ERK phosphorylation at Tyr204 residues in rat RG2 cells at 112.4uM after 48 hrs by Western blot analysis (reference value: 1). It is filed as cell-based.
The subject of experiment [11] is DBTRG-05MG. Description: Potentiation of TMZ-induced antitumor activity against human DBTRG-05MG cells xenografted in BALB/c nude mouse assessed as reduction in tumour growth at 75 mg/kg, sc co-treated with TMZ for 18 days. The experiment is classed as functional, organism-based. The following applies: time 18.0 day.
Experiment [12] concerns RG2. The experiment in a line: Synergistic cytotoxicity against rat RG2 cells assessed as combination index at 112.4 uM after 48 hrs in presence of 515.1 uM TMZ by MTT assay. It is filed as functional.
The target of experiment [13] is Serine/threonine-protein kinase AKT (Homo sapiens) (UniProt P31751+Q9Y243+P31749). The experiment in a line: Inhibition of AKT phosphorylation at S473 residues in human DBTRG-05MG cells at 112.4uM after 48 hrs by Western blot analysis. The experiment is classed as cell-based.
Serine/threonine-protein kinase AKT (Homo sapiens), sequence (P31749 whole entry, looked up): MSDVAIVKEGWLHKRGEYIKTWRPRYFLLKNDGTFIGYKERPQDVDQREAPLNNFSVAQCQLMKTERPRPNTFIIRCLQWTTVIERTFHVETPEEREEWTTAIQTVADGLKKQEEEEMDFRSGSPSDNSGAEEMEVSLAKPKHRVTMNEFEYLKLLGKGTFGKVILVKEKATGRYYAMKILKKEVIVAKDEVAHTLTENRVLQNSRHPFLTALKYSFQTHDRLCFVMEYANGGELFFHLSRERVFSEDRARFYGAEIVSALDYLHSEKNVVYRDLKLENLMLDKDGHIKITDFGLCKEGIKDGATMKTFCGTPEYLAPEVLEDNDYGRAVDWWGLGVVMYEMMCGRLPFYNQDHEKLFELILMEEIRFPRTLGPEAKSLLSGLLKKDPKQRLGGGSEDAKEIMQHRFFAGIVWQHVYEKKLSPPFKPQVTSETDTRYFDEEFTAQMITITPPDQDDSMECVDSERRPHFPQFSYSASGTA
Serine/threonine-protein kinase AKT (Homo sapiens), sequence (P31751 whole entry, looked up): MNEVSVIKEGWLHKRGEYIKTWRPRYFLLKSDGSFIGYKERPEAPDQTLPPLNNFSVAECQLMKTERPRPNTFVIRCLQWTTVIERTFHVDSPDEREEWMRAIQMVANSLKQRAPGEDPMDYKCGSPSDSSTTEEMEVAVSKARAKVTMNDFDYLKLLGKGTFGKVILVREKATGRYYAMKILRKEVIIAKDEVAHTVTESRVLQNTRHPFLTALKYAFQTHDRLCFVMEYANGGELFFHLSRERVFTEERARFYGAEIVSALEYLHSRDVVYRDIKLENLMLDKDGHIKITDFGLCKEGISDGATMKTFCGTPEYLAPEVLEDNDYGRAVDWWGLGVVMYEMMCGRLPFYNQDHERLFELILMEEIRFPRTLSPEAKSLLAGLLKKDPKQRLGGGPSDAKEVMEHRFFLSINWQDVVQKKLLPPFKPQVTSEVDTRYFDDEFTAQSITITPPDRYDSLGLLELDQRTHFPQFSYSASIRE
Serine/threonine-protein kinase AKT (Homo sapiens), sequence (Q9Y243 whole entry, looked up): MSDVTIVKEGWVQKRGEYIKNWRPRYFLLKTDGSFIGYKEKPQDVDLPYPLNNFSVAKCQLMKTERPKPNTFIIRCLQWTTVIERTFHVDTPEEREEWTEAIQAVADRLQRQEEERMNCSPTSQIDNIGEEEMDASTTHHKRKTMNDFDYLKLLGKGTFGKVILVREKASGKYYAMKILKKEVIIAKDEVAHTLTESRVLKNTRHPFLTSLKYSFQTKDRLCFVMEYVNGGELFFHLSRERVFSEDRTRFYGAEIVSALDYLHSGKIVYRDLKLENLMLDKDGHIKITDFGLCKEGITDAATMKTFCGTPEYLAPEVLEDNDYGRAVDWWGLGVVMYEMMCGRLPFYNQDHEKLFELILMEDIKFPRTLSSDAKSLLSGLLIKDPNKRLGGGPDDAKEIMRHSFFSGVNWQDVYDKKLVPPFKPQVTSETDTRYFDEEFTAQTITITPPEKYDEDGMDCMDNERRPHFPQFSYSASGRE
Experiment [14] has as its system RG2. The experiment in a line: Induction of cell cycle arrest in rat RG2 cells assessed as accumulation at G0/G1 phase at 112.4 uM after 48 hrs by propidium iodide staining based flow cytometric analysis (reference value: 57.81 +/- 1.9%). It is filed as functional.

The source made the active and inactive calls. No cut-off for these calls is given here.

`Cn1nnc2c(C(N)=O)ncn2c1=O` [TEMOZOLOMIDE]: the “fold change (FC)” value in the experiment with RG2 [1] was 0.6; in the experiment with DBTRG-05MG [2], 1; in the experiment with RG2 [3], 0.9. Also, the Activity with RG2 [4] was found to be 54.73%.

Take `C[C@@H]1CC[C@H]2C(C)(C)[C@H]3C[C@@]12CC[C@@]3(C)O` [CEDROL]: the Activity in the experiment on DBTRG-05MG [5] is given as 49.17%; in the experiment with RG2 [7] it was 11.96%; in the experiment on RG2 [8], 61.35%; in the experiment on RG2 [14] it was 61.9%. Moreover, the “fold change (FC)” value is 0.4 in the experiment with DBTRG-05MG [6], 0.9 in the experiment on RG2 [10] and 0.8 in experiment [13]. The outcome in the experiment on DBTRG-05MG [9] and with DBTRG-05MG [11] was Active. In the experiment on RG2 [12], the CI was found to be 1.06.

(Values after ChEMBL document CHEMBL4699511, “Cedrol, a Sesquiterpene Alcohol, Enhances the Anticancer Efficacy of Temozolomide in Attenuating Drug Resistance via Regulation of the DNA Damage Response and MGMT Expression” (J Nat Prod, 2020).)
